Data taken from patent US20250304973A1, “HIGH-AFFINITY THROMBIN APTAMERS AND METHODS OF USE” (Ayass Bioscience LLC, priority 2024, published 2025).
{CholTEG} = cholesterol attached through a triethylene glycol linker; {Sp18} = hexaethylene glycol (Sp18, PEG) spacer; {Sp9} = triethylene glycol (Sp9, TEG) spacer

How the values were obtained:
human citrated plasma [1] = experiment: Activated partial thromboplastin time (APTT) assay in human citrated plasma; format: biochemical; settings: for increase in APTT time: 2 uM, 2 h, versus untreated control; for impact of modified aptamer on APTT: 2 uM modified aptamer, 1 hour room temperature plus 2-hour incubation, versus unmodified aptamer
Method: (§1) 137. Sterile human blood in sodium citrate was purchased from the Rockland Immuno- chemicals, Inc (cat #R214-0050, Pottstown, PA 19464, USA). Plasma was prepared by centrifugation for 10 min at 2000×g. In vitro activity assays were performed on ACLTOP analyzer manufactured by Instrumentation Laboratory, which is a type of coagulation analyzer commonly used in clinical laboratories to measure clotting times and assess coagulation parameters. The ACLTOP analyzer is designed to perform a wide range of coagulation tests, including Factor II activity, prothrombin time (PT), activated partial thromboplastin time (APTT), fibrinogen, and other related assays. ACLTOP analyzer uses HemosIL reagents developed by Instrumentation Laboratory company (Bedford, MA, USA) to perform coagulation tests.
140. […] APTT time was measured using the synthetic phospholipid reagent SynthASIil for quantitative determination in human citrated plasma on an ACLTOP coagulation analyzer manufactured by Instrumentation Laboratory (Bed- ford, MA, USA).
(§2) 146. Modified aptamers chemically crosslinked with TAG, PEG, and cholesterol entities at the 3′ end, were purchased from IDT (Integrated DNA Technologies, Coralville, IA, USA). The impact of modified AYA1809002 and AYA1809004 aptamers on Factor II activity, PT, and APTT was evaluated using the same protocol as was used for the unmodified aptamers. Additionally, the potential for reversal was investigated using the respective reverse complement for each aptamer.

human citrated plasma [2] = experiment: Prothrombin time (PT) assay in human citrated plasma; format: biochemical; settings: for increase in PT time: 2 uM, 2 h, versus untreated control; for impact of modified aptamer on PT: 2 uM modified aptamer, 1 hour room temperature plus 2-hour incubation, versus unmodified aptamer
Method: as §1, with “Plasma” for “137. Sterile human blood in sodium citrate was purchased from the Rockland Immuno- chemicals, Inc (cat #R214-0050, Pottstown, PA 19464, USA). Plasma”
PT time was measured using RecombiPlasTin 2G for quantitative determination in human citrated plasma of PT and Fibrinogen on an ACLTOP coagulation analyzer manufactured by Instrumentation Laboratory (Bedford, MA, USA). To assess the activity of the aptamers in a dose-dependent manner in whole blood, human blood samples were collected in citrate-treated tubes. The blood samples were then incubated at room temperature for 2 h in the absence or presence of varying concentrations of the thrombin aptamers. To measure the Prothrombin Time (PT) on the ACLTOP coagulation analyzer, plasma was obtained by centrifuging the samples at 1500×g for 10 min at 4° C. For the dose dependence study, concentrations of 1 uM, 2 uM, 3 uM, and 4 uM of AYA1809002 and AYA1809004 were utilized.
as §2, with “Modified” for “146. Modified”

Factor II activity = target: T1, Factor II activity (Homo sapiens, UniProt P00734); experiment: Factor II activity assay in human citrated plasma (ACLTOP analyzer); format: biochemical; settings: for reduction in Factor II activity: 2 uM, 2 h, normalized against untreated control; for impact of modified aptamer on Factor II activity: 2 uM modified aptamer, 1 hour room temperature plus 2-hour incubation, versus unmodified aptamer
T1 construct: tissue Rockland Immunochemicals, Inc R214-0050; host or cells: human citrated plasma / whole blood
Method: as §1, with “Plasma” for “137. Sterile human blood in sodium citrate was purchased from the Rockland Immuno- chemicals, Inc (cat #R214-0050, Pottstown, PA 19464, USA). Plasma”
Factor II activity was measured using human plasma immunodepleted of Factor II for the quantitative determination of Factor II activity in citrated plasma based on the prothrombin time (PT) assay, for which an ACLTOP coagulation analyzer manufactured by Instrumentation Laboratory (Bedford, MA, USA) was used. To evaluate the dose-dependent activity of the aptamers in whole blood, human blood samples were collected in citrate-treated tubes. Subsequently, the blood samples were incubated at room temperature for 2 h in both the absence and presence of various concentrations of thrombin aptamers. To measure the Factor II activity using the ACLTOP coagulation analyzer, plasma was separated from the cells by centrifugation at 1500×g for 10 min at 4° C. For the dose-dependent study, concentrations of 1 uM, 2 uM, 3 uM, and 4 uM of AYA1809002 and AYA1809004 were utilized.
as §2, with “Modified” for “146. Modified”

[3] = target: T2, human alpha-thrombin protein (Homo sapiens, UniProt P00734); experiment: ELISA-based binding assay of biotinylated thrombin aptamers to thrombin protein; settings: top nine enriched aptamers, biotinylated; FIG. 2A
T2 construct: Native human alpha-thrombin protein; purchased ThermoFisher Scientific RP-43100; host or cells: native protein
Method: 135. Native human alpha-thrombin protein (ThermoFisher Scientific, cat #RP-43100, Waltham, MA, USA) was added to each well of a 96-well plate (Nunc MaxiSorp flat-bottom 96-well plates, ThermoFisher Scientific, cat #44-2404-21, Waltham, MA, USA) at a concentration of 250 nM in Tris-buffered saline with a volume of 100 μL per well. The plate was then incubated at 4° C. for 16 h to allow the wells to become coated with thrombin. After removing the thrombin solution, the wells were washed and blocked using blocking buffer (20 mM Tris, 150 mM NaCl pH 7.5, 2% BSA, 0.1% Tween 20 and 100 μg/mL of sheared salmon sperm DNA) for a 1 h duration. Next, biotinylated aptamers at the indicated concentrations in a volume of 100 μL were added to the wells in an incubation buffer (20 mM Tris, 150 mM NaCl pH 7.5, 0.1% BSA, 0.1% Tween 20 and 100 μg/mL of sheared salmon sperm DNA) and incubated for 1 h at room temperature. In the competition binding assay, unlabeled aptamers were added along with the biotinylated aptamers, with the unlabeled aptamers being present in a 100-fold excess compared to the biotinylated aptamers. Following three washing steps with wash buffer (20 mM Tris, 150 mM NaCl pH 7.5, 0.1% BSA and 0.1% Tween 20), streptavidin-HRP (ThermoFisher Scientific, cat #21130, Waltham, MA, USA) was added at a dilution of 1:5000 in the incubation buffer. The plate was washed again three times to remove any unbound reagents. The bound biotinylated aptamers were then detected using 3,3′,5,5′-Tetramethylbenzidine (TMB) substrate (ThermoFisher Scientific, cat #34021, Waltham, MA, USA) following the manufacturer's instructions.

clot-bound thrombin = settings: in vivo studies, literature; cited from earlier work
rat whole blood = experiment: Factor II activity, PT, APPT and TT in rat whole blood; format: biochemical
[4] = in clinical trials; cited from earlier work
[5] = Table 3, existing solution; cited from earlier work
[6] = Table 3, existing solution; cited from earlier work; remark: listed apart in the source
[7] = requires refrigeration; cited from earlier work
[8] = target: thrombin over other serine proteases (Homo sapiens, UniProt P00734); settings: Table 3, existing solution; cited from earlier work
AYA1809002 = experiment: Restoration of Factor II activity and PT time with reverse complement in whole blood; format: biochemical, human; settings: 1 uM AYA1809002 2 h room temperature in whole blood, then reverse complement; even at 1:1 ratio
Method: 144. Citrated blood collected from a donor was incubated in the absence or presence of 1 uM AYA1809002 at room temperature. After 2 h incubation, the indicated concentration of the reverse complement strand was added to the citrated blood sample. After an additional incubation time of 2 h, plasma was obtained through centrifugation. Factor II activity was measured using human plasma immunodepleted of Factor II for the quantitative determination of Factor II activity in citrated plasma based on the prothrombin time (PT) assay, for which an ACLTOP coagulation analyzer manufactured by Instrumentation Laboratory (Bedford, MA, USA) was used. The PT time was measured using RecombiPlasTin 2G for quantitative determination in human citrated plasma of PT and Fibrinogen on an ACLTOP coagulation analyzer manufactured by Instrumentation Laboratory (Bedford, MA, USA).

[9] = system: modified AYA1809002 and AYA1809004 aptamers; experiment: Reversal potential of reverse complement on modified aptamers in human citrated plasma; format: biochemical; settings: 5 μM reverse complement strand, additional 2-hour incubation
Method: as §2

Substance: AYA1809007: ssDNA thrombin aptamer AGGGGCTCTAGGGTGGGTAGGATGGTGAGACCGCAGCGT (DNA, backbone and methylation of C not given here; further chemistry not fully specified)
- increase in APTT time (human citrated plasma [1]): three-fold increase
- increase in PT time (human citrated plasma [2]): two-fold increases
- reduction in Factor II activity (Factor II activity): more than 75%
- binding to immobilized human thrombin (absorbance at 450 nm) [3]: strong binding capabilities

Substance: HD1: first anti-thrombin DNA aptamer, 15-mer 5′-GGTTGGTGTGGTTGG-3′ binding exosite I (DNA, backbone not given here)
- inhibition of clot-bound thrombin (clot-bound thrombin): > 80%

Substance: PEG-modified AYA1809002: AYA1809002 sequence with /3Sp18/ at the 3′ end (DNA GCGGTGTTGCTGGGGTTGGGAGGTTGGAGGAAGCAATCGC; DNA, 3' {Sp18}, backbone and methylation of C not given here)
- APPT in rat whole blood (rat whole blood; dose-dependent manner): extend
- Factor II activity in rat whole blood (rat whole blood; dose-dependent manner): inhibit
- PT in rat whole blood (rat whole blood; dose-dependent manner): extend
- TT in rat whole blood (rat whole blood; dose-dependent manner): extend

Substance: PEG-modified AYA1809004: AYA1809004 sequence with /3Sp18/ at the 3′ end (DNA TCGTCAAGGTACGGTTGGGGGGGTGGGTGTTGACGTTGAA; DNA, 3' {Sp18}, backbone and methylation of C not given here)
- impact of modified aptamer on APTT (human citrated plasma [1]): slight increase
- impact of modified aptamer on PT (human citrated plasma [2]): slight increase
- impact of modified aptamer on Factor II activity (Factor II activity): noticeable inhibition

Substance: TEG-modified AYA1809004: AYA1809004 sequence with /3Sp9/ at the 3′ end (DNA TCGTCAAGGTACGGTTGGGGGGGTGGGTGTTGACGTTGAA; DNA, 3' {Sp9}, backbone and methylation of C not given here)
- impact of modified aptamer on APTT (human citrated plasma [1]): slight increase
- impact of modified aptamer on PT (human citrated plasma [2]): slight increase
- impact of modified aptamer on Factor II activity (Factor II activity): noticeable inhibition

Substance: cholesterol-modified AYA1809004: AYA1809004 sequence with /3CholTEG/ at the 3′ end; Table 2 misprints the name (DNA TCGTCAAGGTACGGTTGGGGGGGTGGGTGTTGACGTTGAA; DNA, 3' {CholTEG}, backbone and methylation of C not given here)
- impact of modified aptamer on APTT (human citrated plasma [1]): no significant impact
- impact of modified aptamer on PT (human citrated plasma [2]): no significant impact
- impact of modified aptamer on Factor II activity (Factor II activity): no significant impact

Substance: dabigatran
- life-threatening bleeding risks [4]: bleeding risks (′ 3.3%
- Half-life [5]: Half-life of 12-17 hours
- Renal Clearance [5]: ~80%
- Onset of Action: peak effect [6]: Peak effect 2-3 hours
- increase in APTT time (human citrated plasma [1]): three-fold increase
- increase in PT time (human citrated plasma [2]): two-fold increases
- reduction in Factor II activity (Factor II activity): 80%
- shelf life [7]: shelf life 36 months
- selectivity [8]: ~300-fold selectivity

Substance: heparin
- inhibition of clot-bound thrombin (clot-bound thrombin): 35%

Substance: reverse complement of AYA1809002: aptamer antidote GCGATTGCTTCCTCCAACCTCCCAACCCCAGCAACACCGC (DNA, backbone and methylation of C not given here)
- restoration of Factor II activity by reverse complement (AYA1809002): effectively restored
- restoration of PT time by reverse complement (AYA1809002): effectively restored
- neutralization of aptamer effects in rat whole blood (rat whole blood; reverse complement strand): neutralized the observed effects
- reversal of modified aptamers' effects on Factor II activity, PT and APTT [9]: effectively reverses the observed effects

Substance: reverse complement of AYA1809004: aptamer antidote TTCAACGTCAACACCCACCCCCCCAACCGTACCTTGACGA (DNA, backbone and methylation of C not given here)
- reversal of modified aptamers' effects on Factor II activity, PT and APTT [9]: effectively restored
